Reference: article PMC11546255, “Exploring the Frontier of Cyclic Dipeptides: A Bioinformatics Approach to Potential Therapeutic Applications in Schizophrenia” (International Journal of Molecular Sciences, 2024)

Columns and labels:
human SIGMA1 receptor [1] = target: T1, human SIGMA1 receptor (Homo sapiens, UniProt Q99720); experiment: SIGMA1 filtration radioligand binding assay ([3H]DTG, membranes of transfected HEK293 cells); set-up: expressed in transfected cells; membrane/cell debris preparation; details: for inhibition at 20 µM / SIGMA1 % Inhibition of Max Dose: Max Dose 20.000 μM
T1 sequence (Q99720 whole entry): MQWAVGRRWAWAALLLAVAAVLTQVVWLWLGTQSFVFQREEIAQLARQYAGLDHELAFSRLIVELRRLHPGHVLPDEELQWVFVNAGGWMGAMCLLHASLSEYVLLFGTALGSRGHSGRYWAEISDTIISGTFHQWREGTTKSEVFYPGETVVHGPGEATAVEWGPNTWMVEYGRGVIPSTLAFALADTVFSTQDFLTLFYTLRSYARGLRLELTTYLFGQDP
Protocol: For SIGMA1 receptor expression in HEK293 cells, the human SIGMA1 receptor (U75283) in pcDNA 3.1(+) (Promega Corp., Madison, WI, USA) was used. In total, 2 μg of DNA was transfected in HEK293 cells (1,000,000 cells/dish) using FuGENE® HD Transfection Reagent (Promega Corp., Madison, WI, USA) according to the manufacturer’s recommendations. After 24 h, the medium was replaced by a medium containing the G418 antibiotic (300 μg/mL) (Burlington, MA, USA). The survival clones were scraped and cultured in individual dishes. After the cell amplification, they were harvested with trypsin and homogenized, then centrifuged at 50,000× g for 1 h, and the cell debris was used for the binding assay.
A SIGMA1 receptor-enriched membrane preparation was utilized for the binding assays at a 1.1 mg/mL concentration. Each assay well was loaded with 13 μg of this membrane preparation to ensure consistent receptor availability across all experimental conditions.
This methodical preparation ensures that the assay conditions are reproducible and that the concentration-dependent effects of the compounds can be accurately evaluated.
Reference and test compounds were diluted and transferred sequentially to the assay plate. We added non-specific binding compounds (low control, LC) and DMSO as the total binding high control (HC) according to the non-specific binding plate layout. We added 100 μL of the membrane stock solution and 100 μL of the radiolabeled ligand to the plate. We sealed the plates and shook them at 300 rpm under specified conditions. We filtered the reaction mixture through GF/B plates using a Filtermate-Harvester (PerkinElmer, Waltham, MA, USA, Cat: C961961), followed by washing with cold wash buffer, and dried and sealed the filter plates.
We added non-specific binding compounds (as the LC) and DMSO as the total binding HC according to the non-specific binding plate layout. Then, we added 100 μL of the membrane stock solution and 100 μL of the radiolabeled ligand to the plate. We sealed the plates and shook them at 300 rpm under specified conditions. […] After the binding experiment, we filtered the reaction mixture through GF/B plates using a Perkin Elmer Filtermate Harvester, washing each plate six times with a cold wash buffer. We dried the filter plates for 1 h at 50 °C. After drying, we sealed the bottom of the filter plate wells with Perkin Elmer Unifilter-96 backing tape. […] We counted the 3H on the filters using a Perkin Elmer MicroBeta2 Reader.
We analyzed the data using Prism 5. We fitted dose–response curves and determined the half maximal inhibitory concentration (IC50) using the “log(inhibitor) vs. response-variable slope” model.
We used the Z’-Prime equation for quality control, which can be written as follows: Z′ Factor=1−3×STDEVHC+3×STDEVLC/AVGHC − AVGLC∗100% where STDEVHC is the average standard deviation of MAX, STDEVLC is the average standard deviation of MIN, AVGHC is the average of MAX, and AVGLC is the average of MIN. Z’ must be ≥0.5 as the quality control standard.

human SIGMA1 receptor [2] = target: T1, human SIGMA1 receptor; experiment: radioligand binding; filtration competition assay: membranes of HEK293 cells expressing human SIGMA1 (13 ug per well), [3H]DTG at 0.005 uM displaced by the test compound, max dose 20 uM, room temperature, GF/B filter plates
[3] = [3H]DTG 0.005 μM, membranes of HEK293 cells expressing human SIGMA1, read-out: SIGMA1 IC50
[4] = [3H]DTG 0.005 μM, membranes of HEK293 cells expressing human SIGMA1, read-out: SIGMA1 Ki

Molecule | IC50 (human SIGMA1 receptor [1]; [3]) [µM] | Ki (human SIGMA1 receptor [1]; [4]) [µM] | SIGMA1 % Inhibition of Max Dose (human SIGMA1 receptor [1]) [%] | further results
C[C@@H]1NC(=O)[C@H](CCC(N)=O)NC1=O [Cyclo(Ala-Gln)] | 13.4 | 11.7 |  | inhibition at 20 µM (human SIGMA1 receptor [1]): 59.7%
C[C@@H]1NC(=O)[C@H](Cc2cnc[nH]2)NC1=O [Cyclo(Ala-His)] | 19.4 | 16.9 |  | inhibition at 20 µM (human SIGMA1 receptor [1]): 50.2%
O=C1CNC(=O)[C@H](Cc2ccc(O)cc2)N1 [Cyclo(Gly-Tyr)] | > 20 | > 17.4 | 42.82 | 
O=C1NC(Cc2ccc(O)cc2)C(=O)N2CC(O)CC12 (centres unmarked) [Cyclo(Hyp-Tyr)] | > 20 | > 17.4 | 49.80 | 
O=C1NC(Cc2ccccc2)C(=O)N2CCCC12 (centres unmarked) [Cyclo(Phe-Pro)] | > 20 | > 17.4 | 24.20 | 
CC(C)C1NC(=O)CNC1=O (centres unmarked) [Cyclo(Val-Gly)] |  |  |  | Ki (human SIGMA1 receptor [1]): 9.95 µM; inhibition at 20 µM (human SIGMA1 receptor [1]): 61.9%; IC50 (human SIGMA1 receptor [1]; SIGMA1 IC50, [3H]DTG 0.005 μM, membranes of HEK293 cells expressing human SIGMA1): 11.5 µM
cyclo(Ala-Gln) |  |  |  | % Inhibition of Max Dose (human SIGMA1 receptor [2]): 59.7%; IC50 (human SIGMA1 receptor [2]): 13.4 µM
cyclo(Ala-His) |  |  |  | % Inhibition of Max Dose (human SIGMA1 receptor [2]): 50.2%; IC50 (human SIGMA1 receptor [2]): 19.4 µM
cyclo(Val-Gly) |  |  |  | % Inhibition of Max Dose (human SIGMA1 receptor [2]): 61.9%; IC50 (human SIGMA1 receptor [2]): 11.5 µM
cyclo(Val-Val) |  |  |  | IC50 (human SIGMA1 receptor [2]): > 20 µM; Ki (human SIGMA1 receptor [2]): > 17.4 µM

Now from value to molecule, other results behind:

IC50 (human SIGMA1 receptor [1]; [3]) [µM] | Ki (human SIGMA1 receptor [1]; [4]) [µM] | SIGMA1 % Inhibition of Max Dose (human SIGMA1 receptor [1]) [%] | Molecule | further results
> 20 | > 17.4 | 44.60 | CC1NC(=O)CNC1=O (centres unmarked) [Cyclo(Ala-Gly)] | 
> 20 | > 17.4 | 3.200 | O=C1CNC(=O)CN1 [Cyclo(Gly-Gly)] | 
> 20 | > 17.4 | 54.26 | O=C1NC(Cc2ccccc2)C(=O)N2CC(O)CC12 (centres unmarked) [Cyclo(Hyp-Phe)] | 
> 20 | > 17.4 | 39.40 | O=C1N[C@@H](Cc2ccccc2)C(=O)N[C@H]1Cc1ccccc1 [Cyclo(Phe-Phe)] | 
> 20 | > 17.4 | 40.29 | O=C1N[C@@H](Cc2ccc(O)cc2)C(=O)N[C@H]1Cc1ccc(O)cc1 [Cyclo(Tyr-Tyr)] | 
